# Reference: patent US20110159603A1, “FLUORESCENT PROBE SPECIFIC TO HYDROGEN PEROXIDE” (THE UNIVERSITY OF TOKYO, priority 2008, published 2011)
# Assays:
# [1] = Fluorescence spectrum change on adding hydrogen peroxide; details: excitation 490 nm
# Description: [The source words this procedure for another target and reports this target under the same test.] (§1) The addition of hydroxyl radical (10 μM) to the test system was performed by the method of adding hydrogen peroxide (10 μM) to a solution of Compound 5, and then immediately adding a solution of iron(II) perchlorate (10 μM) in purified water to the mixture to generate hydroxyl radicals by the Fenton reaction.
# [2] = Relative fluorescence intensity at 520 nm on adding other reactive oxygen species; details: hydroxyl radical 10 μM, peroxynitrite 10 μM, hypochlorite ion 10 μM, NOC13 100 μM or EP-1 100 μM; compound 1 μM; excitation 490 nm
# Description: as §1
# [3] = Relative fluorescence intensity with superoxide from hypoxanthine/xanthine oxidase (HPX/x.o.) system; details: compound 10 μM
# RAW264.7 cells = assay: Detection of hydrogen peroxide in live cells by fluorescence microscopy; type: cell-based; details: RAW264.7 cells stimulated with LPS 50 μg/ml and IFN-γ 100 unit/ml for 12 hours vs non-stimulated; observed 2 hours after loading; excitation 470 to 495 nm, fluorescence 510 to 550 nm
# Description: It was confirmed that Compound 5 was also usable for detection of hydrogen peroxide in live cells. The RAW264.7 cells were stimulated with a lipopolysaccharide (LPS, 50 μg/ml) and interferon-γ (IFN-γ, 100 unit/ml) for 12 hours, then a diacetylated compound of Compound 5 was loaded on the cells, and 2 hours later, the cells were observed under a fluorescence microscope using the U-MNIBA2 filter set produced by Olympus Corporation (excitation wavelength: 470 to 495 nm, fluorescence wavelength: 510 to 550 nm) (FIG. 2).
compound,measurement,setting,value
"N#Cc1ccc(C(=O)C(=O)c2ccc(-c3c4ccc(=O)cc-4oc4cc(O)ccc34)c(C(=O)O)c2)cc1 [Compound 5, 5-(4-cyanobenzoyl)carbonylfluorescein]",change of the fluorescence spectrum over time,"[1]; hydrogen peroxide 100 μM added to compound 1 μM, after 5, 15, 30 and 60 minutes",increase of fluorescence intensity was observed over time
same,relative fluorescence intensity at 520 nm,"[1]; hydrogen peroxide 100 μM for 30 minutes, compound 1 μM",increase of fluorescence intensity was observed only when hydrogen peroxide was added
same,relative fluorescence intensity at 520 nm,[2],no increase of fluorescence intensity
same,relative fluorescence intensity at 520 nm,[3]; HPX/x.o. system with SOD 60 Unit/L added,no significant change in the degree of the increase of fluorescence intensity
same,relative fluorescence intensity at 520 nm,[3]; HPX/x.o. system with catalase 100 Unit/L added,reduced to around the level of the control
same,relative fluorescence intensity at 520 nm,"[3]; superoxide 10 μM, HPX/x.o. system (x.o. 2.38 mUnit/L, HPX 10 μM), versus control",higher in the case using the HPX/x.o. system than in the case of the control
same,fluorescence intensity in cells,RAW264.7 cells,higher when loading Compound 5 on the stimulated cells (B) than on the non-stimulated cells (A)
